Reference: US20250262214A1, “INTERMITTENT DOSING REGIMEN FOR AZENOSERTIB IN TREATING CANCER” (Zeno Management, Inc., priority 2022, published 2025)
Entries after “also recorded” stand apart in the source; their conditions may differ.

Experiments:
[1] = test system: human ovarian cancer OVCAR3; assay: Human ovarian cancer OVCAR3 model, tumor volume; format: in vivo
Experimental: In an exemplary human ovarian cancer OVCAR3 model, Azenosertib was administered at a dose of about 100 mg/kg at intermittent dosing regimen of 3 cycles of 7 days on/7 days off (7/7). Tumor volume change was plotted in FIG. 1I and corresponding change in body weight in FIG. 1J until about 32 days post-initiation of treatment.
In an exemplary human ovarian cancer OVCAR3 model, Azenosertib was administered based on an intermittent dosing regimen of 5 days on/2 days off (5/2) for a once daily dose (as compared to a twice daily dose (e.g., 80 mg/kg once daily vs. 40 mg/kg twice daily and 100 mg/kg once daily vs. 50 mg/kg twice daily).
Tumor volume was measured as shown in FIG. 2A and corresponding changes in body weight are shown in FIG. 2B until about 22 days post initiation of treatment.
In an exemplary human ovarian cancer OVCAR3 model, Azenosertib was administered at two different doses in each of two intermittent dosing regimen. Briefly, Azenosertib was administered 5 cycles of a 5 days on/2 days off (5/2) intermittent regimen at a dose of about 80 mg/kg (cumulative dose of 400 mg) and 90 mg/kg (cumulative dose of 450 mg) and also 4 cycles of a 4 days on/3 days off (4/3) intermittent regimen at 90 mg/kg (cumulative dose of 450 mg) and 100 mg/kg (cumulative dose of 500 mg). The results were compared with a continuous dose of 60 mg/kg for 22 days (cumulative dose of 300 mg).
Changes in tumor volume are shown in FIG. 2C and corresponding change in body weight in FIG. 2D until about 24 days post-initiation of treatment.
In an exemplary human ovarian cancer OVCAR3 model, Azenosertib was administered at 100 mg/kg in 3 cycles each of two intermittent dosing regimen, 4 days on/3 days off (4/3) or 3 days on/4 days off (3/4). Further, a continuous dosing of 60 mg/kg was administered for 24 days.
At a dose of 3 cycles of about 100 mg/kg for 4/3, the cumulative dose was 1200 mg, while at a dose of 3 cycles of about 100 mg/kg for 3/4, the cumulative dose was 900 mg.
Azenosertib and the PARPi, talazoparib, were evaluated using OVCAR-3 models on an intermittent dosing schedule. […] In addition, the alternating dosing schedule may potentially abrogate overlapping toxicity with WEE1 inhibitor and PARPi coadministration.
In an exemplary human ovarian cancer OVCAR3 animal model, Azenosertib was administered at an intermittent dosing of 60 mg/kg or 80 mg/kg at 3 cycles of 5 days on/2 days off, while Paclitaxel and Carboplatin were also each administered at respectively 20 mg/kg and 25 mg/kg, once a week, for 3 weeks In addition, the combinations of Azenosertib and Paclitaxel and of Azenosertib and Carboplatin were administered in accordance with the same dosing regimens and doses as their respective monotherapies.

[2] = test system: ovarian cancer and uterine serous carcinoma (USC); assay: Phase 1a/1b Azenosertib monotherapy study, tumor response (RECIST 1.1); format: in vivo, human
Experimental: (§1) In this example, a Phase 1a dose escalation and Phase 1b dose expansion clinical study was carried out to evaluate the safety and pharmacokinetics (PK), i.e. steady state exposure (AUC0-24) and concentration maximum (Cmax) of Azenosertib monotherapy.
(§2) In some cohorts, a phase 1a dose escalation was carried out starting at doses below 200 mg, escalating to 200 mg, 300 mg, 350 mg, 400 mg, and 450 mg total daily dose in continuous dosing regimen. The dose used in Phase 1b was 300 mg QD.
(§3) In some cohorts, a phase 1a dose escalation was carried out starting at doses of 350 mg, 400 mg, 450 mg and 500 mg total daily dose at a 5:2 or 4:3 dosing regimen. The doses used in Phase 1b were 350 mg and 400 mg at 5:2 dosing regimen.
Tumor assessments (per RECIST 1.1) were carried out every 2 cycles (6 weeks) in subjects recruited in the study. There were no biomarker requirements to enroll in the study; nor were there any prior therapy requirements. Individuals in the cohorts represented multiple tumor types (FIG. 9A). Heavily pretreated subjects with advanced solid tumors were included in continuous and intermittent dosing cohorts (Table 6).
51 subjects were enrolled with Uterine Serous Carcinoma (USC) or High Grade Serous Ovarian Cancer (HGSOC) after multiple prior therapies in cohorts treated with continuous or intermittent dosing schedules (Table 7A) and intermittent dosing schedule only (Table 7B).
(§4) A total of 127 heavily pretreated subjects with advanced solid tumors were treated with Azenosertib monotherapy at ascending dose levels of either continuous daily dosing or intermittent weekly administration schedules. Across all tumor types, 74 subjects were treated with continuous dosing schedules and 53 subjects were treated with intermittent dosing schedules.

[3] = Phase 1 Azenosertib monotherapy study, PK, safety and RP2D; format: in vivo, human
Experimental: as §1, §2, §3
In this example, a Phase 1 Azenosertib dose optimization study was carried out to evaluate the recommended phase II dose (RP2D) of Azenosertib monotherapy.
as §4

[4] = Half-life of Azenosertib; format: in vivo; settings: plasma
[5] = intermittent dosing cohort, platinum-resistant ovarian cancer and USC, median follow-up 9.2 months

With `C=CCn1c(=O)c2cnc(Nc3ccc(N4CCN(C)CC4)cc3)nc2n1-c1ccc2c(n1)[C@@](O)(CC)CC2` [Azenosertib, (R)-2-allyl-1-(7-ethyl-7-hydroxy-6,7-dihydro-5H-cyclopenta[b]pyridin-2-yl)-6-((4-(4-methylpiperazin-1-yl)phenyl)amino)-1,2-dihydro-3H-pyrazolo[3,4-d]pyrimidin-3-one] the “tumor volume, intermittent 4/3 or 3/4 vs continuous dosing” value ([1]; 100 mg/kg 3 cycles 4/3 or 3/4 vs 60 mg/kg continuous for 24 days) was “higher efficacy than continuous dosing”, the “efficacy of 4/3 regimen vs 3/4 regimen” value ([1]; 100 mg/kg, 3 cycles, 4/3 = higher cumulative dose) was “slightly higher efficacy” and the “tumor volume, once daily vs twice daily dose” value ([1]; 5/2, 80 mg/kg once daily vs 40 mg/kg twice daily, 100 mg/kg once daily vs 50 mg/kg twice daily, same cumulative dose) was “more efficacious relative to each twice daily dose; also recorded: more efficacious relative to a twice daily dose”. The “tumor volume, intermittent 5/2 and 4/3 vs continuous dose” value ([1]; 80, 90 mg/kg 5/2 and 90, 100 mg/kg 4/3 vs 60 mg/kg continuous, about 24 days) was “more efficacious than the lower continuous dose”, the “tumor volume, 7/7 intermittent dosing regimen” value ([1]; about 100 mg/kg, 3 cycles of 7 days on/7 days off, about 32 days) was “effective in reducing tumor volume” and the “overall Objective Response Rate (ORR %)” value ([2]; Azenosertib monotherapy, N=51, N with at least 1 scan=40) was 27.5%. For the same compound, the “subjects with stable disease (SD) or partial response (PR) as best overall response” value ([2]; USC and HGSOC subjects) was 95%, the “subjects with target lesion reductions from baseline scans” value ([2]; USC and HGSOC subjects) was 89% and the ORR % [2, 5] was 36.8%. For the same compound, the mPFS [2, 5] was 6.5 months, the “median PFS” value ([2]; ovarian, early follow up of median 4.4 months) was “around 5.1 months” and the “steady state exposure AUC (0-24), intermittent RP2D vs continuous” value ([3]; 400 mg QD 5/2 compared to 300 mg QD continuous administration) was “more than doubled”. The “cases of febrile neutropenia and sepsis” value ([3]; Azenosertib monotherapy including intermittent dosing) was “no observed cases of febrile neutropenia and sepsis”, the “RP2D as a monotherapy” value ([3]; daily (QD), 5 days on, 2 days off (5/2) weekly schedule) was 400 mg and the “discontinuations due to TRAEs” value ([3]; intermittent cohorts) was “no reported discontinuation; also recorded: No discontinuations due to TRAEs”. For the same compound, the “gastrointestinal, fatigue, and hematologic Grade 3 and 4 treatment-related adverse events (TRAEs)” value ([3]; intermittent versus continuous dosing) was “comparable or favorable versus continuous dosing”, the “safety and tolerability, intermittent vs continuous dosing” value ([3]; monotherapy) was “improved tolerability” and the “maximal concentration (Cmax) levels, intermittent vs continuous dosing regimen” value ([3]; monotherapy, Phase 1) was “higher maximal concentration (Cmax) levels”. For the same compound, the half-life [4] was 8 h.
